This passage reports IC50 results from patent US10246456B2, “IRAK4 inhibiting agents” (BIOGEN MA INC., priority 2014, dated 2019).

Some results are limits rather than exact numbers.

Sequence of IRAK4 (Q9NWZ3 whole entry, species assumed): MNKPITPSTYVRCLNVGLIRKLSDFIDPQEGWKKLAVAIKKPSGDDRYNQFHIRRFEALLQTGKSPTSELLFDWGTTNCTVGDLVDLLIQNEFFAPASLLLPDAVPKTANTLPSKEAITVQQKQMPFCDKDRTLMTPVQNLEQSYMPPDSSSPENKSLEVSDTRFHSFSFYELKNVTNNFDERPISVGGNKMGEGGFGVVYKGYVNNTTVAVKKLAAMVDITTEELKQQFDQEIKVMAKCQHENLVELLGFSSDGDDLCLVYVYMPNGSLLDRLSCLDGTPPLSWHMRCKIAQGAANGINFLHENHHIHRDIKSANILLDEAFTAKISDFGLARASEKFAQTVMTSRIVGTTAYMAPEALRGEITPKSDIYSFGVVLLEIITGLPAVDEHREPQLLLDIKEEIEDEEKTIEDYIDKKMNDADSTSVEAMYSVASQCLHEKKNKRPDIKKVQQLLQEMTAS

The experiment concerns the target IRAK4 (Homo sapiens (Human), UniProt Q9NWZ3). Briefly: IRAK-4 AlphaScreen biochemical kinase assay. The following applies: 1 nM IRAK4, 1 mM ATP, 3.5 h at RT. The gist of the method: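 AlphaScreen read-out: streptavidin beads bind the biotinylated peptide and protein A beads bind the anti-phosphothreonine antibody, so energy transfer reports phosphorylation of the peptide. The kinase is human IRAK-4.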
A general note: Bead proximity is the source of the signal in Alpha formats.
In the case of `Cc1cccc(-n2ncc3ccc(-c4ccc(C)c(C(C)N)n4)cc32)n1` (stereo not drawn) [Example 281, 1-(3-methyl-6-(1-(6-methylpyridin-2-yl)-1H-indazol-6-yl)pyridin-2-yl)ethanamine], the IC50 is under 100 nM.
As to `Cc1csc(-n2ncc3ccc(-c4cccc(C(C)N)n4)cc32)c1` (stereo not drawn) [Example 282, 1-(6-(1-(4-methylthiophen-2-yl)-1H-indazol-6-yl)pyridin-2-yl)ethanamine], the IC50 was 1000 to 10000 nM.
As to `CCCc1cccc(-n2ncc3ccc(-c4cccc(C(C)N)n4)cc32)n1` (stereo not drawn) [Example 283, 1-(6-(1-(6-propylpyridin-2-yl)-1H-indazol-6-yl)pyridin-2-yl)ethanamine], the IC50 was under 100 nM.
Regarding `CC(N)c1cccc(-c2ccc3cnn(-c4cccc(C(C)O)n4)c3c2)n1` (stereo not drawn) [Example 284, 1-(6-(6-(6-(1-aminoethyl)pyridin-2-yl)-1H-indazol-1-yl)pyridin-2-yl)ethanol], the IC50 is under 100 nM.
Then `Cc1cccc(-n2ncc3ccc(-c4coc(CN)n4)cc32)n1` [Example 285, (4-(1-(6-methylpyridin-2-yl)-1H-indazol-6-yl)oxazol-2-yl)methanamine], with 1000 to 10000 nM.
In turn, `CC(N)c1cccc(-c2ccc3cnn(-c4cccc(C(C)(C)C)n4)c3c2)n1` (stereo not drawn) [Example 286, 1-(6-(1-(6-(tert-butyl)pyridin-2-yl)-1H-indazol-6-yl)pyridin-2-yl)ethanamine] came in with an IC50 of under 100 nM.
As for `CC(N)c1cccc(-c2ccc3cnn(-c4cccc(CN)n4)c3c2)n1` (stereo not drawn) [Example 287, 1-(6-(1-(6-(aminomethyl)pyridin-2-yl)-1H-indazol-6-yl)pyridin-2-yl)ethanamine], the figure is 100 to 1000 nM; as for `CC(N)c1cccc(-c2ccc3cnn(-c4cccc(C(C)(C)C#N)n4)c3c2)n1` (stereo not drawn) [Example 288, 2-(6-(6-(6-(1-aminoethyl)pyridin-2-yl)-1H-indazol-1-yl)pyridin-2-yl)-2-methylpropanenitrile], 100 to 1000 nM.
As for `CC(N)c1cccc(-c2ccc3cnn(-c4cccc(C(C)(C)S(C)(=O)=O)n4)c3c2)n1` (stereo not drawn) [Example 289, 1-(6-(1-(6-(2-(methylsulfonyl)propan-2-yl)pyridin-2-yl)-1H-indazol-6-yl)pyridin-2-yl)ethanamine], the figure is 1000 to 10000 nM.
Then `CC(N)c1cccc(-c2ccc3cnn(-c4cccc(C5(C#N)CC5)n4)c3c2)n1` (stereo not drawn) [Example 290, 1-(6-(6-(6-(1-aminoethyl)pyridin-2-yl)-1H-indazole-1-yl)pyridin-2-yl)cyclopropanecarbonitrile], with under 100 nM; and `NCc1cccc(-c2ccc3cnn(-c4cccc(CO)n4)c3c2)n1` [Example 291, (6-(6-(6-(aminomethyl)pyridin-2-yl)-1H-indazol-1-yl)pyridin-2-yl)methanol], with under 100 nM.
With `CC(N)c1cccc(-c2ccc3cnn(-c4cccc(C(C)(C)N)n4)c3c2)n1` (stereo not drawn) [Example 292, 2-(6-(6-(6-(1-aminoethyl)pyridin-2-yl)-1H-indazol-1-yl)pyridin-2-yl)propan-2-amine], the IC50 was 1000 to 10000 nM.
On to `CCc1cccc(-c2ncc3ccc(-c4cccc(C(C)N)n4)cn23)n1` (stereo not drawn) [Example 293, 1-(6-(3-(6-ethylpyridin-2-yl)imidazo[1,5-a]pyridin-6-yl)pyridin-2-yl)ethanamine], for which the IC50 was under 100 nM.
As for `CCC(N)c1cccc(-c2ccc3cnn(-c4cccc(CO)n4)c3c2)n1` (stereo not drawn) [Example 294, (6-(6-(6-(1-aminopropyl)pyridin-2-yl)-1H-indazol-1-yl)pyridin-2-yl)methanol], the figure is under 100 nM; as for `Cc1cccc(-n2ncc3c(-c4ncc[nH]4)cc(-c4cccc(C(C)N)n4)cc32)n1` (stereo not drawn) [Example 295, 1-(6-(4-(1H-imidazol-2-yl)-1-(6-methylpyridin-2-yl)-1H-indazol-6-yl)pyridin-2-yl)ethanamine], under 100 nM; as for `Cc1ccnc(-n2ncc3ccc(-c4cccc(C(C)N)n4)cc32)n1` (stereo not drawn) [Example 296, 1-(6-(1-(4-methylpyrimidin-2-yl)-1H-indazol-6-yl)pyridin-2-yl)ethanamine], 1000 to 10000 nM.
As for `CC(N)c1cccc(-c2ccc3cnn(-c4nccc(C(F)(F)F)n4)c3c2)n1` (stereo not drawn) [Example 297, 1-(6-(1-(4-(trifluoromethyl)pyrimidin-2-yl)-1H-indazol-6-yl)pyridin-2-yl)ethanamine], the IC50 was under 100 nM.
As for `Cc1cccc(-n2ncc3ccc(-c4cccc(C(C)(C)N)n4)cc32)n1` [Example 298, 2-(6-(1-(6-methylpyridin-2-yl)-1H-indazol-6-yl)pyridin-2-yl)propan-2-amine], the figure is 100 to 1000 nM.
As for `Cc1cccc(-n2ncc3ccc(-c4cn(C)c(C(C)O)n4)cc32)n1` (stereo not drawn) [Example 299, 1-(1-methyl-4-(1-(6-methylpyridin-2-yl)-1H-indazol-6-yl)-1H-imidazol-2-yl)ethanol], the figure is 1000 to 10000 nM; as for `Cc1cccc(-n2ncc3ccc(-c4cn(C)c(CN)n4)cc32)n1` [Example 300, (1-methyl-4-(1-(6-methylpyridin-2-yl)-1H-indazol-6-yl)-1H-imidazol-2-yl)methanamine], 1000 to 10000 nM; as for `CC(N)c1cccc(-c2ccc3cnn(-c4cccc(C(C)(C)C(N)=O)n4)c3c2)n1` (stereo not drawn) [Example 301, 2-(6-(6-(6-(1-aminoethyl)pyridin-2-yl)-1H-indazol-1-yl)pyridin-2-yl)-2-methylpropanamide], 100 to 1000 nM.
With `CC(N)c1cccc(-c2ccc3cnc(-c4cccc(CO)n4)n3c2)n1` (stereo not drawn) [Example 302, (6-(6-(6-(1-aminoethyl)pyridin-2-yl)imidazo[1,5-a]pyridin-3-yl)pyridin-2-yl)methanol], the IC50 is under 100 nM.
As for `Cc1cccc(-n2ncc3c(-c4nccs4)cc(-c4cccc(C(C)N)n4)cc32)n1` (stereo not drawn) [Example 303, 1-(6-(1-(6-methylpyridin-2-yl)-4-(thiazol-2-yl)-1H-indazol-6-yl)pyridin-2-yl)ethanamine], the figure is under 100 nM.
Take `Cc1cccc(-n2ncc3ccc(-c4cccc(C5(C#N)CCC5)n4)cc32)n1` [Example 304, 1-(6-(1-(6-methylpyridin-2-yl)-1H-indazol-6-yl)pyridin-2-yl)cyclobutanecarbonitrile]: the IC50 was under 100 nM.
In the case of `Cc1cccc(-n2ncc3ccc(-c4cn(C)c(C(C)N)n4)cc32)n1` (stereo not drawn) [Example 305, 1-(1-methyl-4-(1-(6-methylpyridin-2-yl)-1H-indazol-6-yl)-1H-imidazol-2-yl)ethanamine], the IC50 fell in the range of 100 to 1000 nM.
As for `Cc1cccc(-n2ncc3ccc(-c4ccccn4)cc32)n1` [Example 306, 1-(6-methylpyridin-2-yl)-6-(pyridin-2-yl)-1H-indazole], the figure is 100 to 1000 nM; as for `COc1cc(-c2cccc(C(C)N)n2)cc2c1cnn2-c1cccc(CO)n1` (stereo not drawn) [Example 307, (6-(6-(6-(1-aminoethyl)pyridin-2-yl)-4-methoxy-1H-indazol-1-yl)pyridin-2-yl)methanol], under 100 nM; as for `Cc1cccc(-n2ncc3ccc(-c4ccc5c(n4)C(N)CCCC5)cc32)n1` (stereo not drawn) [Example 308, 2-(1-(6-methylpyridin-2-yl)-1H-indazol-6-yl)-6,7,8,9-tetrahydro-5H-cyclohepta[b]pyridin-9-amine], 100 to 1000 nM.
Then `CC(N)c1cccc(-c2cc(CO)c3cnn(-c4cccc(CO)n4)c3c2)n1` (stereo not drawn) [Example 309, (6-(6-(1-aminoethyl)pyridin-2-yl)-1-(6-(hydroxymethyl)pyridin-2-yl)-1H-indazol-4-yl)methanol], with under 100 nM; and `Cc1cccc(-n2ncc3ccc(-c4csc(C(C)N)n4)cc32)n1` (stereo not drawn) [Example 310, 1-(4-(1-(6-methylpyridin-2-yl)-1H-indazol-6-yl)thiazol-2-yl)ethanamine], with under 100 nM.
Regarding `CC(N)c1cccc(-c2cc(Cl)c3cnc(-c4cccc(C(F)(F)F)n4)n3c2)n1` (stereo not drawn) [Example 311, 1-(6-(8-chloro-3-(6-(trifluoromethyl)pyridin-2-yl)imidazo[1,5-a]pyridin-6-yl)pyridin-2-yl)ethanamine], the half-maximal inhibitory concentration (IC50) is under 100 nM.
The molecule `Cc1cccc(-n2ncc3ccc(-c4cccc(C5(C(N)=O)CCC5)n4)cc32)n1` [Example 312, 1-(6-(1-(6-methylpyridin-2-yl)-1H-indazol-6-yl)pyridin-2-yl)cyclobutanecarboxamide] yielded an IC50 of under 100 nM.
Then `Cc1cccc(-n2ncc3ccc(-c4cccc(CCC(F)(F)F)n4)cc32)n1` [Example 313, 1-(6-methylpyridin-2-yl)-6-(6-(3,3,3-trifluoropropyl)pyridin-2-yl)-1H-indazole], with 1000 to 10000 nM.
For the molecule `CC(N)c1cccc(-c2ccc3cnn(-c4cccc(CCO)n4)c3c2)n1` (stereo not drawn) [Example 314, 2-(6-(6-(6-(1-aminoethyl)pyridin-2-yl)-1H-indazol-1-yl)pyridin-2-yl)ethanol], the IC50 is under 100 nM.
Then `Cc1cc(C)nc(-n2ncc3ccc(-c4cccc(C(C)N)n4)cc32)c1` (stereo not drawn) [Example 315, 1-(6-(1-(4,6-dimethylpyridin-2-yl)-1H-indazol-6-yl)pyridin-2-yl)ethanamine], with 1000 to 10000 nM.
Then `CNC(=O)c1cc(-c2cccc(C(C)N)n2)cc2c1cnn2-c1cccc(CO)n1` (stereo not drawn) [Example 316, 6-(6-(1-aminoethyl)pyridin-2-yl)-1-(6-(hydroxymethyl)pyridin-2-yl)-N-methyl-1H-indazole-4-carboxamide], with under 100 nM.
Then `CC(N)c1cccc(-c2cc(F)c3cnc(-c4cccc(C(F)(F)F)n4)n3c2)n1` (stereo not drawn) [Example 317, 1-(6-(8-fluoro-3-(6-(trifluoromethyl)pyridin-2-yl)imidazo[1,5-a]pyridin-6-yl)pyridin-2-yl)ethanamine], with under 100 nM.
In turn, `CC[C@H](N)c1cccc(-c2ccc3cnn(-c4cccc(CO)n4)c3c2)n1` [Example 318, (S)-(6-(6-(6-(1-aminopropyl)pyridin-2-yl)-1H-indazol-1-yl)pyridin-2-yl)methanol] came in with an IC50 of under 100 nM.
Then `Cc1cccc(-n2ncc3c(-c4cc[nH]n4)cc(-c4cccc(C(C)N)n4)cc32)n1` (stereo not drawn) [Example 319, 1-(6-(1-(6-methylpyridin-2-yl)-4-(1H-pyrazol-3-yl)-1H-indazol-6-yl)pyridin-2-yl)ethanamine], with under 100 nM.

By IC50 is commonly meant the concentration needed to halve the response being measured. Low readings indicate greater potency in that assay, high ones weaker potency in that assay.
